According to ChEMBL document CHEMBL4706559, “New indolylarylsulfone non-nucleoside reverse transcriptase inhibitors show low nanomolar inhibition of single and double HIV-1 mutant strains” (Eur J Med Chem, 2020):

Key:
[1] = molecular target: Human immunodeficiency virus type 1 reverse transcriptase (Human immunodeficiency virus 1) (UniProt Q72547); test: Binding affinity to free form of wild type HIV-1 p66/p51 reverse transcriptase assessed as dissociation constant using poly(rA)/oligo(dT) as templates in presence of [3H]dTTP
[2] = tested on: Human immunodeficiency virus 1; test: Inhibition of HIV1 p66/p51 reverse transcriptase K103N/Y181C double mutant assessed as apparent Km of substrate at 300 nM using […] as templates in presence of fixed concentration of [3H]dTTP by Michaelis-Menten analysis (reference value: 106+/- 16 nM)
[3] = molecular target: Human immunodeficiency virus type 1 reverse transcriptase (Human immunodeficiency virus 1) (UniProt Q72547); test: Inhibition of wild type HIV1 p66/p51 reverse transcriptase assessed as apparent Vmax at 90 nM using fixed concentration of poly(rA)/oligo(dT) as templates in presence of 2 to 100 uM of [3H]dTTP by Michaelis-Menten analysis (reference value: 9.7 +/- 12%)
[4] = tested on: Human immunodeficiency virus 1; test: Ratio of Koff of HIV-1 p66/p51 reverse transcriptase K103N/Y181C double mutant/nucleic acid/dTTP ternary complex to Koff of HIV-1 p66/p51 reverse transcriptase/nucleic acid binary complex using poly(rA)/oligo(dT) as templates in presence of [3H]dTTP
[5] = tested on: Human immunodeficiency virus 1; test: Inhibition of HIV1 p66/p51 reverse transcriptase K103N/Y181C double mutant assessed as apparent Vmax at 150 nM using 10 to 500 uM poly(rA)/oligo(dT) as templates in presence of fixed concentration of [3H]dTTP by Michaelis-Menten analysis (reference value: 12 +/- 1%)
[6] = molecular target: Human immunodeficiency virus type 1 reverse transcriptase (Human immunodeficiency virus 1) (UniProt Q72547); test: Synergistic inhibition of wild type HIV-1 p66/p51 reverse transcriptase assessed as combination index using poly(rA)/oligo(dT) as templates in presence of [3H]dTTP preincubated with enzyme and AZTTP followed by substrate addition
[7] = molecular target: Human immunodeficiency virus type 1 reverse transcriptase (Human immunodeficiency virus 1) (UniProt Q72547); test: Ratio of Koff of wild type HIV-1 p66/p51 reverse transcriptase/nucleic acid binary complex to Koff of free form of wild type HIV-1 p66/p51 reverse transcriptase using poly(rA)/oligo(dT) as templates in presence of [3H]dTTP
[8] = tested on: Human immunodeficiency virus 1; test: Binding affinity to HIV-1 p66/p51 reverse transcriptase K103N/Y181C double mutant/nucleic acid binary complex assessed as association constant using poly(rA)/oligo(dT) as templates in presence of [3H]dTTP
[9] = tested on: Human immunodeficiency virus 1; test: Binding affinity to free form of HIV-1 p66/p51 reverse transcriptase K103N/Y181C double mutant assessed as dissociation constant using poly(rA)/oligo(dT) as templates in presence of [3H]dTTP
[10] = tested on: Human immunodeficiency virus 1; test: Resistance index, ratio of EC50 for antiviral activity against HIV1 harboring RT Y188L mutant infected in human MT4 cells to EC50 for antiviral activity against HIV1 NL4-3 infected in human MT4 cells; type: functional
[11] = molecular target: Human immunodeficiency virus type 1 reverse transcriptase (Human immunodeficiency virus 1, UniProt Q72547); test: Inhibition of RNA-dependent DNA polymerase activity of wild type recombinant HIV-1 His-tagged p66/p51 reverse transcriptase assessed as inhibition of [3H]dTTP incorporation using poly(rA)/oligo(dT) as templates incubated for 15 mins by MicroBeta scintillation counting method
[12] = molecular target: Human immunodeficiency virus type 1 reverse transcriptase (Human immunodeficiency virus 1) (UniProt Q72547); test: Binding affinity to wild type HIV-1 p66/p51 reverse transcriptase/nucleic acid/dTTP ternary complex assessed as dissociation constant using poly(rA)/oligo(dT) as templates in presence of [3H]dTTP

For `Cc1cc(C)cc(S(=O)(=O)c2c(C(=O)NCc3ccccc3O)[nH]c3ccc(Cl)cc23)c1`, the K [1] was 4 10^-3/s, the Km [2] was 0.104 µM and the Vmax(app) [3] was 2.9%. For the same compound, the Ratio [4] was 4, the Vmax(app) [5] was 6% and the CI [6] was 1.15. The Ratio [7] was 8, the K [8] was 10 10^-5/nM/s and the K [9] was 14 10^-3/s. The “Ratio EC50” value [10] was over 30, the IC50 [11] was 83 nM and the K [12] was 4.1 10^-3/s.
